Data published in the supplement of paper PMC11061612.

Key:
[1] = system: AMO-1 (Plasma Cell Myeloma); assay: Bliss excess, mean over the matrix (fraction); higher = more synergy
Method in brief: (§1)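 After 24 hours at 37°C and 5% CO2 in 1536-well plates, cells in DMEM/F12 or RPMI plus 10% FBS received two-drug dose matrices for 72 hours. Viability came from CellTiter-Glo 2.0 luminescence and was scaled as inhibition, anchored at 0 by vehicle wells and at 1 by blank wells. Combination Emax is taken as the second-highest inhibition in the matrix, and Bliss excess as the observed combination effect less EA + EB − EA·EB, with EA and EB the single-agent effects.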

[2] = system: BT-549 (Breast Carcinoma); assay: as above
Method in brief: as §1

[3] = system: Ca9-22 (Head and Neck Carcinoma); assay: as above
Method in brief: as §1

D-263MG (Glioblastoma) = assay: as above
Method in brief: as §1

[4] = system: EFM-19 (Breast Carcinoma); assay: as above
Method in brief: as §1

EW-24 (Ewing's Sarcoma) = assay: as above
Method in brief: as §1

[5] = system: KYSE-450 (Esophageal Squamous Cell Carcinoma); assay: as above
Method in brief: as §1

[6] = system: LU-65 (Non-Small Cell Lung Carcinoma); assay: as above
Method in brief: as §1

NB69 (Neuroblastoma) [7] = assay: as above
Method in brief: as §1

[8] = system: NCI-H358 (Lung Adenocarcinoma); assay: as above
Method in brief: as §1

[9] = system: NCI-H727 (Other Solid Carcinomas); assay: as above
Method in brief: as §1

[10] = system: PANC-04-03 (Pancreatic Carcinoma); assay: as above
Method in brief: as §1

TGW (Neuroblastoma) = assay: as above
Method in brief: as §1

UACC-62 (Melanoma) = assay: as above
Method in brief: as §1

YH-13 (Glioblastoma) = assay: as above
Method in brief: as §1

[11] = system: Ca9-22 (Head and Neck Carcinoma); assay: combination Emax (second highest fraction inhibited in the dose matrix, 72 h); higher = more inhibition; extreme values may be limits of the assay
Method in brief: as §1

[12] = system: Caov-4 (Ovarian Carcinoma); assay: as above
Method in brief: as §1

[13] = system: EoL-1-cell (Acute Myeloid Leukemia); assay: as above
Method in brief: as §1

NB69 (Neuroblastoma) [14] = assay: as above
Method in brief: as §1

[15] = system: SW13 (Other Solid Carcinomas); assay: as above
Method in brief: as §1
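For Bliss excess, mean over the matrix in this document: after 72 h of two-drug dosing.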

Compound | Bliss excess [1] | Bliss excess [2] | Bliss excess [3] | Bliss excess (D-263MG (Glioblastoma)) | Bliss excess [4] | Bliss excess (EW-24 (Ewing's Sarcoma)) | Bliss excess [5] | Bliss excess [6] | Bliss excess (NB69 (Neuroblastoma) [7]) | Bliss excess [8] | Bliss excess [9] | Bliss excess [10] | Bliss excess (TGW (Neuroblastoma)) | Bliss excess (UACC-62 (Melanoma)) | Bliss excess (YH-13 (Glioblastoma)) | combination Emax [11] | combination Emax [12] | combination Emax [13] | combination Emax (NB69 (Neuroblastoma) [14]) | combination Emax [15]
Cc1cc2ncnn2cc1Nc1ncc2c(n1)n(C1CCOCC1)c(=O)n2C [AZD7648] + CCN(CCO)CCCOc1ccc2c(Nc3cc(CC(=O)Nc4cccc(F)c4)[nH]n3)ncnc2c1 [AZD2811] (first compound max 10 µM, 7x7, partner max 1 µM) | 0.0431 | 0.013 | 0.0541 | 0.0415 | 0.116 | -0.0051 | 0.0246 | 0.0057 | -0.0195 | -0.0718 | -0.0003 | -0.0078 | 0.0148 | -0.0027 | -0.0762 | 0.3 | 0.445 | 0.984 | 0.655 | 0.506
C[C@@H](c1ccc2nccn2c1)n1nnc2ncc(-c3cnn(C)c3)nc21 [Savolitinib] + CC1(C)CCC(CN2CCN(c3ccc(C(=O)NS(=O)(=O)c4ccc(NCC5CCOCC5)c([N+](=O)[O-])c4)c(Oc4cnc5[nH]ccc5c4)c3)CC2)=C(c2ccc(Cl)cc2)C1 [Venetoclax] (first compound max 1 µM, 7x7, partner max 1 µM) | 0.0036 | -0.0439 | -0.0231 | -0.0797 | -0.0273 | -0.0739 | -0.0471 | -0.0738 | -0.0378 | -0.0564 | -0.0536 | -0.0736 | -0.0486 | -0.0111 | 0.0179 | 0.193 | 0.12 | 0.86 | 0.372 | 0.139
COc1cc2c(cc1OCCCCCOc1cc3c(cc1OC)C(=O)N1C=C(C)C[C@H]1C=N3)N=C[C@@H]1CC(C)=CN1C2=O [SG3199] + O=C(c1cc(Cc2n[nH]c(=O)c3ccccc23)ccc1F)N1CCN(C(=O)C2CC2)CC1 [Olaparib] (first compound max 0.001 µM, 7x7, partner max 10 µM) | -0.0342 | -0.041 | -0.0113 | -0.018 | -0.063 | -0.0272 | -0.041 | 0.0047 | -0.0102 | -0.0353 | -0.0726 | -0.046 | -0.0446 | -0.0663 | -0.0282 | 0.0924 | 0.165 | 0.319 | 0.444 | 0.0899
Cc1nc(Nc2ncc(C(=O)Nc3c(C)cccc3Cl)s2)cc(N2CCN(CCO)CC2)n1 [Dasatinib] + CC(=O)Nc1cccc(-n2c(=O)n(C3CC3)c(=O)c3c(Nc4ccc(I)cc4F)n(C)c(=O)c(C)c32)c1 [Trametinib] (first compound max 2 µM, 7x7, partner max 1 µM) | 0.058 | -0.0945 | 0.0313 | -0.031 | -0.0957 | -0.0569 | -0.0101 | -0.112 | 0.0099 | 0.004 | -0.0357 | 0.0163 | -0.0621 | 0.0064 | -0.0698 | 0.878 | 0.743 | 1 | 1 | 0.716
N#Cc1cnc(Nc2cc(NC[C@H]3CNCCO3)c(C(F)(F)F)cn2)cn1 [SRA737] + CCc1c2c(nc3ccc(O)cc13)-c1cc3c(c(=O)n1C2)COC(=O)[C@]3(O)CC [SN-38] (first compound max 10 µM, 7x7, partner max 0.3 µM) | -0.0225 | -0.0463 | 0.0252 | 0.0777 | 0.107 | -0.0859 | 0.157 | -0.0191 | -0.0351 | 0.0057 | 0.0316 | -0.0583 | 0.0191 | 0.0364 | 0.0231 | 0.954 | 0.9 | 0.994 | 0.991 | 0.948
N#Cc1cnc(Nc2cc(NC[C@H]3CNCCO3)c(C(F)(F)F)cn2)cn1 [SRA737] + O=c1[nH]cc(F)c(=O)[nH]1 [5-Fluorouracil] (first compound max 10 µM, 7x7, partner max 20 µM) | -0.0004 | 0.0358 | 0.0135 | -0.0456 | 0.0189 | 0.0101 | -0.0348 | 0.0104 | -0.0068 | -0.0743 | 0.001 | 0.0102 | -0.0389 | -0.0561 | 0.0119 | 0.606 | 0.749 | 0.994 | 0.805 | 0.0967
